Molecular target: 4-aminobutyrate aminotransferase, mitochondrial (Rattus norvegicus, UniProt P50554)
Experiment: Inhibition of Rattus norvegicus (rat) brain gamma-amino butyrate aminotransferase using gamma-amino butyrate as substrate assessed as decrease in NADPH generation after 30 min by spectrophotometric analysis

4-aminobutyrate aminotransferase, mitochondrial, sequence (P50554 whole entry): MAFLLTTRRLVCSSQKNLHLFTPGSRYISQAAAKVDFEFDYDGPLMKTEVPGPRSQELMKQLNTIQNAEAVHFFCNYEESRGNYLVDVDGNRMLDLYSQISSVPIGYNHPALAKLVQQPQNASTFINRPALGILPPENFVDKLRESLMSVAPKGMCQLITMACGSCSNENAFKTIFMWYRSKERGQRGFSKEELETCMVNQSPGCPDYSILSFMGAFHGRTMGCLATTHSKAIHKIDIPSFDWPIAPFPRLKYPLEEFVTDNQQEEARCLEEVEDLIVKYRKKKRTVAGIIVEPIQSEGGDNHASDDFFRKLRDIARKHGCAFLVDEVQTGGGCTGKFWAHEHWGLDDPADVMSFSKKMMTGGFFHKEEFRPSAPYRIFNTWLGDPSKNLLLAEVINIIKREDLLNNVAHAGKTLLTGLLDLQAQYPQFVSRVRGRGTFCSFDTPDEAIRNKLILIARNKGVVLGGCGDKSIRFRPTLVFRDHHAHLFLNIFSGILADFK

SMILES | IC50 [nM]
NCCCC(=O)N/N=C(\c1ccccc1)c1ccc(Br)cc1 | 560
CC1CCC(C(C)C)/C(=N/CCCC(=O)O)C1 (stereo not drawn) | 20800
CC12CCC(C1)C(C)(C)/C2=N\CCCC(=O)O (stereo not drawn) | 10000
C=C(C)C1CC=C(C)/C(=N/CCCC(=O)O)C1 (stereo not drawn) | 23500
CC1=C(C)C(=Nc2cccc(C(=O)O)c2)C(C)=C(C)C1=O | 6540
C/C(=N\CCCC(=O)O)c1ccc2ccccc2c1 | 44100
CCc1ccc2c(c1)/C(=N/c1cccc(C(=O)O)c1)c1ccccc1C2=O | 1210
O=C(O)CCC/N=C1/C(=O)c2cccc3cccc1c23 | 16800
O=C(O)CCC/N=C1/C(=O)c2ccccc2-c2ccccc21 | 15500
O=C(O)c1cccc(/N=C2\C(=O)c3ccccc3-c3ccccc32)c1 | 2780
CC1=CC(=O)C=C/C1=N\CCCC(=O)O | 30100
CC1=C/C(=N/CCCC(=O)O)CC(C)(C)C1 | 25900
O=C(O)CCCN=C(/C=C/c1ccccc1)/C=C/c1ccccc1 | 9950
CC1CCCC/C1=N\CCCC(=O)O (stereo not drawn) | 20800
O=C(O)c1cccc(N=C2c3ccccc3C(=O)c3ccccc32)c1 | 4960

These reach a lower IC50. Values come first.

IC50 [nM] | SMILES
370 | Nc1cccc(C(=O)N/N=C(/c2ccccc2)c2ccc(Cl)cc2)c1
130 | NCCCC(=O)N/N=C1\CCc2ccccc2C1
280 | NCCCC(=O)N/N=C1\CCCc2ccccc21
200 | NCCCC(=O)N/N=C/c1ccccc1I
300 | NCCCC(=O)N/N=C(/C(=O)c1ccccc1)c1ccccc1
140 | NCCCC(=O)NN=C1c2ccccc2C(=O)c2ccccc21
320 | C/C(=N/NC(=O)c1cccc(N)c1)c1cccc(Cl)c1
150 | NCCCC(=O)N/N=C/c1cccc(I)c1
240 | Nc1cccc(C(=O)N/N=C2/c3ccccc3C(=O)c3ccc(O)c(O)c32)c1
110 | Cc1ccc2c(c1)/C(=N\NC(=O)CCCN)c1ccccc1C2=O
73 | C/C(=N/NC(=O)CCCN)c1ccccc1Br
91 | C/C(=N/NC(=O)CCCN)c1cccc(Cl)c1
460 | Nc1cccc(C(=O)N/N=C2/c3ccccc3C(=O)c3ccc(Cl)cc32)c1

Reference: ChEMBL document CHEMBL3045067, “-Amino butyric acid analogs as novel potent GABA-AT inhibitors: molecular docking, synthesis, and biological evaluation” (Med Chem Res, 2013)
